Read-outs that look alike come from different tables or passages of the source.
What was measured:
[1] = biological target: T1, M4 muscarinic receptor (Homo sapiens, UniProt P08173); experiment: Functional mobilization of intracellular calcium (FLIPR, Fluo-3), M4-CHO cells; assay type: cell-based; conditions: for Emax: 100% efficacy is the maximum response obtained with the Carbachol control, read-out: M4 Efficacy
T1 construct: expressed in transfected cells; host or cells: CHO cells (M4-CHO, under puromycin, zeocin and blasticidin selection)
T1 sequence (P08173 1-479): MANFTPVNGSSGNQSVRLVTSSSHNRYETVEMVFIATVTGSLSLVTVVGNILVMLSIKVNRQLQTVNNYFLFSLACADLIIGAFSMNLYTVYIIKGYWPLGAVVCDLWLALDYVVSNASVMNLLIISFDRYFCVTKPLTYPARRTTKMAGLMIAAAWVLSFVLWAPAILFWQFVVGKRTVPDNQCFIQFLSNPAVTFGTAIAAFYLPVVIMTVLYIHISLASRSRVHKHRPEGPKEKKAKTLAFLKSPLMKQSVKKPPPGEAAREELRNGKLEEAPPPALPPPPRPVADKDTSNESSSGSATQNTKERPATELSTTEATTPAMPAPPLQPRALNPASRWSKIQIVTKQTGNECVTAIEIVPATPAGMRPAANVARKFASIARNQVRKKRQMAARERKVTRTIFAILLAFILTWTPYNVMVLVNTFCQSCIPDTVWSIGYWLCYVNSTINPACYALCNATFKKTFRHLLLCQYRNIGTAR
Summary of the method: (§1)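 Intracellular calcium was tracked by fluorescence (488/540 nm) over 60 sec after compound addition to dye-loaded CHO cells expressing the receptor. Inhibitory activity used a 15 min pre-incubation before carbachol at the subtype EC80.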

[2] = biological target: T2, M1 muscarinic receptor (Homo sapiens, UniProt P11229); experiment: Functional mobilization of intracellular calcium (FLIPR, Fluo-3), M1-CHO cells; assay type: cell-based; conditions: for Emax: 100% efficacy is the maximum response obtained with the Carbachol control, read-out: M1 Efficacy
T2 construct: expressed in transfected cells; host or cells: CHO cells (M1-CHO, under zeocin and G418 selection)
T2 sequence (P11229 1-460): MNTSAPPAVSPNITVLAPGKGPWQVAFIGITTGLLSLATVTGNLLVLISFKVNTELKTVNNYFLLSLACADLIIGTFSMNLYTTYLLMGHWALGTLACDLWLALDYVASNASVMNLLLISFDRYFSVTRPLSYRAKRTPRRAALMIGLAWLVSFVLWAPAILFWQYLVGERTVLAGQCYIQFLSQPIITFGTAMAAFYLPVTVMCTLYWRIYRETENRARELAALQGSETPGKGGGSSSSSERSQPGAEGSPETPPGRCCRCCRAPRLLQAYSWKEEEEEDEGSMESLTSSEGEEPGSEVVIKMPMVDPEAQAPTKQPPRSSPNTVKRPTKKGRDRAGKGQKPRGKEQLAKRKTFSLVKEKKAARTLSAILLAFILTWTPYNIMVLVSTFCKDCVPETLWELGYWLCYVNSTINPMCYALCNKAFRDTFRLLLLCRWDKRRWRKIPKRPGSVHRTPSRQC
Summary of the method: as §1

[3] = compound nos. 1-454, M4-CHO cells, calcium mobilization
[4] = compound nos. 1-454, M1-CHO cells, calcium mobilization

Structure (SMILES)	Emax ([1]; compound nos. 455-509) [%]	M4 Activity ([1]; compounds 455-509)	Emax ([2]; compound nos. 455-509) [%]	M1 Activity ([2]; compounds 455-509)	Emax ([1]; compound nos. 1-454) [%]	M4 Activity [1, 3]	Emax ([2]; compound nos. 1-454) [%]	M1 Activity [2, 4]	M4 Activity ([1]; compound nos. 1-454)	M1 Activity ([2]; compound nos. 1-454)
CCc1cncc(N2CCC(N3CCC4(CC3)CN(C(C)=O)c3ccccc34)CC2)n1 [compound 485]	25 to 100	++ (activity was measured to be between 2.0 μM and 5.0 μM)	> 100	+++ (activity was measured to be less than or equal to 2.0 μM)						
O=C1CC2(CCN(C[C@H]3C[C@H]4C=C[C@H]3C4)CC2)c2ccccc21 [compound 104]					< 55	+ (activity was measured to be greater than or equal to 4.0 μM)	65 to 85	+++ (activity was measured to be less than or equal to 0.7 μM)		
C#CCCOC(=O)N1CCC(N2CCC3(CC2)CN(C(=O)N(C)C)c2ccc(F)cc23)CC1 [compound 127]					< 55	++ (activity was measured to be between 0.1 μM and 4.0 μM)	65 to 85	+++ (activity was measured to be less than or equal to 0.7 μM)		
CN(C)C(=O)N1CC2(CCN(C3CCN(c4cnc(-c5ccncc5)cn4)CC3)CC2)c2ccccc21 [compound 467]	25 to 100	+ (activity was measured to be greater than or equal to 5.0 μM)	> 100	+++ (activity was measured to be less than or equal to 2.0 μM)						
CC(=O)N1CC2(CCN(C3CC[C@@H]4CC[C@@H]3C4)CC2)c2cc(F)ccc21 (stereo partly shown) [compound 251]					55 to 70	+ (activity was measured to be greater than or equal to 4.0 μM)	65 to 85	++ (activity was measured to be between 0.7 μM and 3.0 μM)		
CC(=O)N1CC2(CCN(CC3CCCOC3)CC2)c2cc(F)ccc21 (stereo not shown) [compound 75]					55 to 70	++ (activity was measured to be between 0.1 μM and 4.0 μM)	< 65	+++ (activity was measured to be less than or equal to 0.7 μM)		
COC(=O)N1CCC(CN2CCC3(CC2)CN(C(C)=O)c2ccc(F)cc23)CC1 [compound 129]					< 55	+ (activity was measured to be greater than or equal to 4.0 μM)	65 to 85	+++ (activity was measured to be less than or equal to 0.7 μM)		
CN(C)C(=O)N1CC2(CCN(C3CCN(C(=O)OCCF)CC3)CC2)c2cc(F)ccc21 [compound 48]					55 to 70	++ (activity was measured to be between 0.1 μM and 4.0 μM)	> 85	+++ (activity was measured to be less than or equal to 0.7 μM)		
COC(=O)N1CCC(CN2CCC3(CC2)CN(C(C)=O)c2ccc(C)cc23)CC1 [compound 423]					< 55		< 65		+ (activity was measured to be greater than or equal to 4.0 μM)	++ (activity was measured to be between 0.7 μM and 3.0 μM)
COC(=O)N1CCC(N2CCC3(CC2)CN(C(=O)N(C)C)c2ccc(F)cc23)CC1 [compound 154]					> 70	+++ (activity was measured to be less than or equal to 0.1 μM)	65 to 85	+++ (activity was measured to be less than or equal to 0.7 μM)		
CCOC(=O)N1CCC(N2CCC3(CC2)CN(C(=O)OC)c2ccc(F)cc23)CC1 [compound 173]					> 70	++ (activity was measured to be between 0.1 μM and 4.0 μM)	65 to 85	+++ (activity was measured to be less than or equal to 0.7 μM)		
CC(=O)N[C@H]1CC2(CCN(C3CCCCCCC3)CC2)c2ccccc21 [compound 261]					< 55	+ (activity was measured to be greater than or equal to 4.0 μM)	< 65	++ (activity was measured to be between 0.7 μM and 3.0 μM)		
c1ccc2c(c1)NCC21CCN(C2CC3CCC2C3)CC1 (stereo not shown) [compound 272]					> 70	+++ (activity was measured to be less than or equal to 0.1 μM)	65 to 85	+++ (activity was measured to be less than or equal to 0.7 μM)		
CC(=O)CN1CC2(CCN(C[C@@H]3C[C@H]4C=C[C@H]3C4)CC2)c2cc(F)ccc21 [compound 385]					< 55		65 to 85		+ (activity was measured to be greater than or equal to 4.0 μM)	++ (activity was measured to be between 0.7 μM and 3.0 μM)
Cc1ccc2c(c1)C1(CCN(CC3CC4CCC3O4)CC1)CN2 (stereo not shown) [compound 372]					> 70	++ (activity was measured to be between 0.1 μM and 4.0 μM)	65 to 85	+++ (activity was measured to be less than or equal to 0.7 μM)		
O=C1Nc2ccccc2C12CCN(C1CC3CCC1C3)CC2 (stereo not shown) [compound 259]					< 55	+ (activity was measured to be greater than or equal to 4.0 μM)	65 to 85	+ (activity was measured to be greater than or equal to 3.0 μM)		
CCOC(=O)N1C2CCC1CC(N1CCC3(CC1)CN(S(=O)(=O)c1c(C)noc1C)c1ccc(F)cc13)C2 (stereo not shown) [compound 89]					< 55	++ (activity was measured to be between 0.1 μM and 4.0 μM)	65 to 85	+++ (activity was measured to be less than or equal to 0.7 μM)		
CCc1nsc(N2CCC(N3CCC4(CC3)C[C@H](N(CCOC)C(C)=O)c3ccccc34)CC2)n1 [compound 505]	25 to 100	++ (activity was measured to be between 2.0 μM and 5.0 μM)	> 100	+++ (activity was measured to be less than or equal to 2.0 μM)						
CC(=O)N(C)[C@H]1CC2(CCN(C3CCN(c4nc(C)ns4)CC3)CC2)c2ccccc21 [compound 479]	25 to 100	++ (activity was measured to be between 2.0 μM and 5.0 μM)	> 100	+++ (activity was measured to be less than or equal to 2.0 μM)						
CCOC(=O)N1CCC(N2CCC3(CC2)CN(C(C)=O)c2ccc(-c4cccc(C#N)c4)cc23)CC1 [compound 373]					> 70	++ (activity was measured to be between 0.1 μM and 4.0 μM)	65 to 85	+++ (activity was measured to be less than or equal to 0.7 μM)		
CCOC(=O)N1CCC(N2CCC3(CC2)CN(C(C)=O)c2ccc(CC)cc23)CC1 [compound 137]					> 70	+ (activity was measured to be greater than or equal to 4.0 μM)	> 85	+++ (activity was measured to be less than or equal to 0.7 μM)		
CCOC(=O)N1C2CCC1CC(N1CCC3(CC1)CN(C(=O)c1cc(C)n(C)n1)c1ccc(F)cc13)C2 (stereo not shown) [compound 50]					> 70	++ (activity was measured to be between 0.1 μM and 4.0 μM)	> 85	+++ (activity was measured to be less than or equal to 0.7 μM)		
Cc1cncc(N2CCC(N3CCC4(CCN(C(=O)N(C)C)c5ccccc54)CC3)CC2)n1 [compound 494]	25 to 100	++ (activity was measured to be between 2.0 μM and 5.0 μM)	> 100	+++ (activity was measured to be less than or equal to 2.0 μM)						
O=C(O[C@@H]1CCOC1)N1CC2(CCN(C3CC4CCC(C3)N4C(=O)O[C@@H]3CCOC3)CC2)c2cc(F)ccc21 (stereo partly shown) [compound 112]					< 55	++ (activity was measured to be between 0.1 μM and 4.0 μM)	65 to 85	+++ (activity was measured to be less than or equal to 0.7 μM)		
COCCOC(=O)N1C2CCC1CC(N1CCC3(CC1)CN(C(=O)C1CC1)c1ccc(F)cc13)C2 (stereo not shown) [compound 311]					55 to 70	+ (activity was measured to be greater than or equal to 4.0 μM)	65 to 85	+++ (activity was measured to be less than or equal to 0.7 μM)		

From patent publication US7858635B2 (priority 2005, dated 2010)
